Data taken from PubChem BioAssay (NCI).
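Exposure lasted 48 hours, with cells grown in 96-well plates and compounds tested at five concentrations. Definition used: TGI = concentration required for complete inhibition of growth.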

How the values were obtained:
Test in all cases: DTP human tumour cell line panel, 48 h
[1] = tested on: 786-0 renal
[2] = tested on: A498 renal
[3] = tested on: A549 NSCLC
[4] = tested on: ACHN renal
[5] = tested on: BT-549 breast
[6] = tested on: CAKI-1 renal
[7] = tested on: CCRF-CEM leukemia
[8] = tested on: COLO 205 colon
[9] = tested on: DU-145 prostate
[10] = tested on: EKVX NSCLC
[11] = tested on: HCC-2998 colon
[12] = tested on: HCT-116 colon
[13] = tested on: HCT-15 colon
[14] = tested on: HL-60(TB) leukemia
[15] = tested on: HOP-62 NSCLC
[16] = tested on: HOP-92 NSCLC
[17] = tested on: HS 578T breast
[18] = tested on: HT29 colon
[19] = tested on: IGROV1 ovarian
[20] = tested on: K-562 leukemia
[21] = tested on: KM12 colon
[22] = tested on: LOX IMVI melanoma
[23] = tested on: M14 melanoma
[24] = tested on: MALME-3M melanoma
[25] = tested on: MCF7 breast
[26] = tested on: MDA-MB-231 breast
[27] = tested on: MDA-MB-435
[28] = tested on: MDA-N
[29] = tested on: MOLT-4 leukemia
[30] = tested on: NCI-H226 lung
[31] = tested on: NCI-H23 lung
[32] = tested on: NCI-H460 lung
[33] = tested on: NCI-H522 lung
[34] = tested on: NCI/ADR-RES ovarian
[35] = tested on: OVCAR-3 ovarian
[36] = tested on: OVCAR-4 ovarian
[37] = tested on: OVCAR-5 ovarian
[38] = tested on: OVCAR-8 ovarian
[39] = tested on: PC-3 prostate
[40] = tested on: RPMI-8226 leukemia
[41] = tested on: RXF 393 renal
[42] = tested on: SF-268 CNS
[43] = tested on: SF-295 CNS
[44] = tested on: SF-539 CNS
[45] = tested on: SK-MEL-2 melanoma
[46] = tested on: SK-MEL-28 melanoma
[47] = tested on: SK-MEL-5 melanoma
[48] = tested on: SK-OV-3 ovarian
[49] = tested on: SN12C renal
[50] = tested on: SNB-19 CNS
[51] = tested on: SNB-75 CNS
[52] = tested on: SR leukemia
[53] = tested on: SW-620 colon
[54] = tested on: T-47D breast
[55] = tested on: TK-10 renal
[56] = tested on: U251 CNS
[57] = tested on: UACC-257 melanoma
[58] = tested on: UACC-62 melanoma
[59] = tested on: UO-31 renal

Structure (SMILES): C=C[C@@]1(C)CC2(C=C(CO)C(O)O2)Oc2c1c(=O)oc1cccc(C)c21 (stereo partly drawn)
- TGI [1]: 3.8 µM
- TGI [2]: 51.8 µM
- TGI [3]: 68.7 µM
- TGI [4]: 21.2 µM
- TGI [5]: 14.2 µM
- TGI [6]: 15.6 µM
- TGI [7]: 7.98 µM
- TGI [8]: 26.9 µM
- TGI [9]: 29.1 µM
- TGI [10]: 35.2 µM
- TGI [11]: 40.1 µM
- TGI [12]: 3.65 µM
- TGI [13]: 7.17 µM
- TGI [14]: 5.12 µM
- TGI [15]: 33.8 µM
- TGI [16]: 40.2 µM
- TGI [17]: 42.9 µM
- TGI [18]: 21.9 µM
- TGI [19]: 18.4 µM
- TGI [20]: 7.46 µM
- TGI [21]: 33.9 µM
- TGI [22]: 13.7 µM
- TGI [23]: 12.1 µM
- TGI [24]: 26.7 µM
- TGI [25]: 25.1 µM
- TGI [26]: 23.9 µM
- TGI [27]: 10.3 µM
- TGI [28]: 15.2 µM
- TGI [29]: 5.78 µM
- TGI [30]: 35.5 µM
- TGI [31]: 21.3 µM
- TGI [32]: 45.2 µM
- TGI [33]: 4.82 µM
- TGI [34]: 10.2 µM
- TGI [35]: 9.66 µM
- TGI [36]: 12.8 µM
- TGI [37]: 36 µM
- TGI [38]: 9.72 µM
- TGI [39]: 32.7 µM
- TGI [40]: 3.82 µM
- TGI [41]: 8.86 µM
- TGI [42]: 12.2 µM
- TGI [43]: > 75.1 µM
- TGI [44]: 12 µM
- TGI [45]: 21.7 µM
- TGI [46]: 25.5 µM
- TGI [47]: 25.3 µM
- TGI [48]: 47.3 µM
- TGI [49]: 15.9 µM
- TGI [50]: 33.2 µM
- TGI [51]: 28.8 µM
- TGI [52]: 7.75 µM
- TGI [53]: 3.74 µM
- TGI [54]: 44.6 µM
- TGI [55]: 43.5 µM
- TGI [56]: 25.6 µM
- TGI [57]: 35 µM
- TGI [58]: 23.1 µM
- TGI [59]: 19 µM

Structure (SMILES): CC(C)(C)c1cc(C(C)(C)C)c2c(c1O)OC(=O)CS2
- TGI [1]: 28.5 µM
- TGI [2]: 66.9 µM
- TGI [3]: > 68.2 µM
- TGI [4]: > 41 µM
- TGI [5]: 23.9 µM
- TGI [6]: > 62.7 µM
- TGI [7]: > 25.3 µM
- TGI [8]: 9.89 µM
- TGI [9]: 51.6 µM
- TGI [10]: 25.6 µM
- TGI [11]: 14 µM
- TGI [12]: 13.4 µM
- TGI [13]: 14.9 µM
- TGI [14]: 10.7 µM
- TGI [15]: 32.6 µM
- TGI [16]: > 47.7 µM
- TGI [17]: 20 µM
- TGI [18]: 21.5 µM
- TGI [19]: > 60.2 µM
- TGI [20]: 40.6 µM
- TGI [21]: 17.8 µM
- TGI [22]: 24 µM
- TGI [23]: 41.2 µM
- TGI [24]: > 93.7 µM
- TGI [25]: > 31.2 µM
- TGI [26]: 52.4 µM
- TGI [27]: 20.1 µM
- TGI [28]: 14.8 µM
- TGI [29]: > 45.8 µM
- TGI [30]: 26.3 µM
- TGI [31]: 18.1 µM
- TGI [32]: 9.13 µM
- TGI [33]: 14.3 µM
- TGI [34]: 20.6 µM
- TGI [35]: 18.1 µM
- TGI [36]: > 74.6 µM
- TGI [37]: 41 µM
- TGI [38]: > 78 µM
- TGI [39]: > 64.7 µM
- TGI [40]: > 100 µM
- TGI [41]: 13.7 µM
- TGI [42]: 23.2 µM
- TGI [43]: 18.8 µM
- TGI [44]: 12.5 µM
- TGI [45]: 28.1 µM
- TGI [46]: > 54.5 µM
- TGI [47]: 9.77 µM
- TGI [48]: > 95.1 µM
- TGI [49]: 21.8 µM
- TGI [50]: 21.5 µM
- TGI [51]: 6.84 µM
- TGI [52]: > 48.7 µM
- TGI [53]: 37.7 µM
- TGI [54]: 22.9 µM
- TGI [55]: 21.7 µM
- TGI [56]: 17.9 µM
- TGI [57]: > 66.7 µM
- TGI [58]: 5.11 µM
- TGI [59]: 20.5 µM
